Biological target: T1, ΔF508-CFTR (Homo sapiens, UniProt P13569, DEL508-508)
T1 construct: Primary lung epithelial cells homozygous for the Cystic Fibrosis-causing ΔF508 mutation were differentiated for a minimum of 4 weeks; endogenous in cells; host or cells: primary lung (bronchial) epithelial cells (hBE) homozygous for ΔF508, differentiated at an air-liquid interface
Assay: hBE equivalent current (Ieq) assay
Assay type: cell-based
Conditions: AUC of equivalent chloride current as % of VX-809 (1 uM); compound at 10 uM and VX-809 at 1 uM; primary hBE cells homozygous ΔF508, 24 h treatment
Experimental: ii. hBE Equivalent Current (Ieq) Assay Primary lung epithelial cells homozygous for the Cystic Fibrosis-causing ΔF508 mutation were differentiated for a minimum of 4 weeks in an air-liquid interface on Costar 24 well HTS filter plates prior to the equivalent current (Ieq) measurements. Cells were apically mucus-washed for 30 minutes 24 h prior to treatment with compounds. The basolateral media was removed and replaced with media containing the compound of interest diluted to its final concentration from DMSO stocks. Treated cells were incubated at 37° C. and 5% CO2 for 24 hours. At the end of the treatment period, the media was changed to the Ieq experimental solution for 30 minutes before the experiment and plates are maintained in a CO2-free incubator during this period. The plates containing the cells were then placed in pre-warmed heating blocks at 36° C.±0.5 for 15 minutes before measurements are taken. The transepithelial voltage (VT) and conductance (GT) were measured using a custom 24 channel current clamp (TECC-24) with 24 well electrode manifold. The Ieq assay measurements were made following additions with standardized time periods: 1. The baseline VT and GT values were measured for approximately 20 minutes. 2. Benzamil was added to block ENaC for 15 minutes. 3. Forskolin plus VX-770 were added to maximally activate ΔF508-CFTR for 27 minutes. 4. Bumetanide was added to inhibit the NaK2Cl cotransporter and shut-off secretion of chloride. The activity data captured was the area under the curve (AUC) for the traces of the equivalent chloride current. The AUC was collected from the time of the forskolin/VX-770 addition until the inhibition by bumetanide addition. Correction in response to compound treatment was scored as the increase in the AUC for compound-treated samples over that of vehicle-treated samples. (** indicates activity ≥200% of VX-809 (1 uM) with compound at 10 uM and VX-809 at 1 uM; * indicates activity 100-200% of VX-809 (1 uM) with compound at 10 uM and VX-809 at 1 uM. ^## indicates activity ≥200% of VX-809 (3 uM) with compound at 10 uM and VX-809 at 3 uM; ^# indicates activity 100-200% of VX-809 (3 uM) with compound at 10 uM and VX-809 at 3 uM.

T1 sequence (P13569 with tags, fused parts or gaps DEL508-508): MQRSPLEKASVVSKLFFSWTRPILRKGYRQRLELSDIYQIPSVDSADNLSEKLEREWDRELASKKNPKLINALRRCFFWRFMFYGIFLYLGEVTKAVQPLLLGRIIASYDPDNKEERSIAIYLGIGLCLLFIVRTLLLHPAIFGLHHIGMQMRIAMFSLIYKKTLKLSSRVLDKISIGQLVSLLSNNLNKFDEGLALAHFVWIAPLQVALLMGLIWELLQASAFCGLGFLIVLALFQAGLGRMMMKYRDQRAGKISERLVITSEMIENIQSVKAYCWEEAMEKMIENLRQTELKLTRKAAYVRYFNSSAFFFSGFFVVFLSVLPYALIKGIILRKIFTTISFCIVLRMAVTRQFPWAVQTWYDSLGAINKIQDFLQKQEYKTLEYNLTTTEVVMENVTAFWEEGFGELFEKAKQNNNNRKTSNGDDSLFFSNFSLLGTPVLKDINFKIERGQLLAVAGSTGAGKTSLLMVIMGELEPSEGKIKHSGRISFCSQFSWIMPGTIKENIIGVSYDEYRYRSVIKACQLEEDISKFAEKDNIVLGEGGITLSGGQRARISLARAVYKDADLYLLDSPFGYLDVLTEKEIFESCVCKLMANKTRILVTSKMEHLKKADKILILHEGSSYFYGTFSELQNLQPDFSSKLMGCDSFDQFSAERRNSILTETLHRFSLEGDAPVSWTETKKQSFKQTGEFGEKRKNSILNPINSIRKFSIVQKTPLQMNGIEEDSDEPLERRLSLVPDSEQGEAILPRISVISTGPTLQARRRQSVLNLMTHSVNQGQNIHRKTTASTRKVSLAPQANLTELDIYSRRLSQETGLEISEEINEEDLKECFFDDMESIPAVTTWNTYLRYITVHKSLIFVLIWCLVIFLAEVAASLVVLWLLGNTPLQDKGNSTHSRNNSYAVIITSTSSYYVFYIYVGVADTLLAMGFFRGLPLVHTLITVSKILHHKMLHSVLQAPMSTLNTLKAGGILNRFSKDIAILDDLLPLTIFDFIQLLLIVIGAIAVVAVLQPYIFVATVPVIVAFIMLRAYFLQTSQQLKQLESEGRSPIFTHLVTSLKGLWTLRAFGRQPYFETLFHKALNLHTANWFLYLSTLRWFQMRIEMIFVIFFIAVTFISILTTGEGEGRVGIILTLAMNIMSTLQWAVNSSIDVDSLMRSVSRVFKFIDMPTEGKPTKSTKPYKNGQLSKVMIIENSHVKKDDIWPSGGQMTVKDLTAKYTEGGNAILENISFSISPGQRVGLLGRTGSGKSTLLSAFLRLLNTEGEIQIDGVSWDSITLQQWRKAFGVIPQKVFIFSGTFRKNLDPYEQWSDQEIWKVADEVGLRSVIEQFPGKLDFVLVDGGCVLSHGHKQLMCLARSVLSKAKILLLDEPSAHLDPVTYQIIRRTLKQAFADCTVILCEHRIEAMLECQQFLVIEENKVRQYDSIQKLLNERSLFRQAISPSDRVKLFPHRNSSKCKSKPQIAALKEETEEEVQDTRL

Q: How did the Ieq activity turn out when `CC(O)c1nnc(NS(=O)(=O)CCNC(=O)c2cc(-c3ccccc3)on2)s1` (stereo in doubt) [Compound B8, (S)—N-(2-(N-(5-(1-hydroxyethyl)-1,3,4-thiadiazol-2-yl)sulfamoyl)ethyl)-5-phenylisoxazole-3-carboxamide] was run?
A: * (activity 100-200% of VX-809 (1 uM) with compound at 10 uM and VX-809 at 1 uM)

Q: How did the Ieq activity turn out when `Nc1cc(CO)nn1S(=O)(=O)CCNC(=O)c1cc(-c2ccccc2)on1` [Compound B7, N-(2-((5-amino-3-(hydroxymethyl)-1H-pyrazol-1-yl)sulfonyl)ethyl)-5-phenylisoxazole-3-carboxamide] was run?
A: * (activity 100-200% of VX-809 (1 uM) with compound at 10 uM and VX-809 at 1 uM)

Q: For `O=C(NCCCNS(=O)(=O)c1cc(CO)n[nH]1)c1cc(-c2ccccc2)on1` [Compound B4, N-(3-((3-(hydroxymethyl)-1H-pyrazole)-5-sulfonamido)propyl)-5-phenylisoxazole-3-carboxamide], which Ieq activity is on record?
A: ** (activity ≥200% of VX-809 (1 uM) with compound at 10 uM and VX-809 at 1 uM)

Q: Which Ieq activity does the source give for `O=C(NCCNS(=O)(=O)c1cc(CO)n[nH]1)c1cc(-c2ccccc2)on1` [Compound B3, N-(2-((3-(hydroxymethyl)-1H-pyrazole)-5-sulfonamido)ethyl)-5-phenylisoxazole-3-carboxamide] here?
A: * (activity 100-200% of VX-809 (1 uM) with compound at 10 uM and VX-809 at 1 uM)

Q: Which Ieq activity does the source give for `CC(O)c1nnc(NS(=O)(=O)CCNC(=O)c2cc(-c3ccccc3)on2)s1` (stereo in doubt) [Compound B9, (R)—N-(2-(N-(5-(1-hydroxyethyl)-1,3,4-thiadiazol-2-yl)sulfamoyl)ethyl)-5-phenylisoxazole-3-carboxamide] here?
A: * (activity 100-200% of VX-809 (1 uM) with compound at 10 uM and VX-809 at 1 uM)

Q: `O=C(NCCCNS(=O)(=O)c1ncc[nH]1)c1cc(-c2ccccc2)on1` [Compound B1] was tested. Which Ieq activity did it give?
A: ** (activity ≥200% of VX-809 (1 uM) with compound at 10 uM and VX-809 at 1 uM)

Q: For `CN(CCCNC(=O)c1cc(-c2ccccc2)on1)S(=O)(=O)c1ncc[nH]1` [Compound B2, N-(3-(N-methyl-1H-imidazole-2-sulfonamido)propyl)-5-phenylisoxazole-3-carboxamide], which Ieq activity is on record?
A: ** (activity ≥200% of VX-809 (1 uM) with compound at 10 uM and VX-809 at 1 uM)

Q: `O=C(NCCCNS(=O)(=O)c1ccccn1)c1cc(-c2ccccc2)on1` [Compound B6, 5-phenyl-N-(3-(pyridine-2-sulfonamido)propyl)isoxazole-3-carboxamide] was tested. Which Ieq activity did it give?
A: ** (activity ≥200% of VX-809 (1 uM) with compound at 10 uM and VX-809 at 1 uM)

Q: For `COCn1ccnc1S(=O)(=O)N(C)CCCNC(=O)c1cc(-c2ccccc2)on1` [Compound B11, N-(3-((1-(methoxymethyl)-N-methyl-1H-imidazole)-2-sulfonamido)propyl)-5-phenylisoxazole-3-carboxamide], which Ieq activity is on record?
A: ** (activity ≥200% of VX-809 (1 uM) with compound at 10 uM and VX-809 at 1 uM)

Q: For `O=C(NCCCNS(=O)(=O)c1ncccn1)c1cc(-c2ccccc2)on1` [Compound B5, 5-phenyl-N-(3-(pyrimidine-2-sulfonamido)propyl)isoxazole-3-carboxamide], which Ieq activity is on record?
A: ** (activity ≥200% of VX-809 (1 uM) with compound at 10 uM and VX-809 at 1 uM)

Q: How did the Ieq activity turn out when `CN(CCCNC(=O)c1cc(-c2ccccc2)on1)S(=O)(=O)c1nccn1C` [Compound B10, N-(3-((N-1-dimethyl-1H-imidazole)-2-sulfonamido)propyl)-5-phenylisoxazole-3-carboxamide] was run?
A: * (activity 100-200% of VX-809 (1 uM) with compound at 10 uM and VX-809 at 1 uM)

Reference: patent publication US10017503B2, “Compounds, compositions, and methods for increasing CFTR activity” (Proteostasis Therapeutics, Inc., priority 2014, dated 2018)
